From patent US20140255392A1 (BAYER INTELLECTUAL PROPERTY GMBH, priority 2011, published 2014)

Target: T1, human kinase Mps-1 (Homo sapiens, UniProt P33981)
T1 construct: N-terminally GST-tagged human full length recombinant Mps-1 kinase; GST (N); purchased Invitrogen, Karslruhe, Germany PV4071
T1 sequence (P33981 1-857): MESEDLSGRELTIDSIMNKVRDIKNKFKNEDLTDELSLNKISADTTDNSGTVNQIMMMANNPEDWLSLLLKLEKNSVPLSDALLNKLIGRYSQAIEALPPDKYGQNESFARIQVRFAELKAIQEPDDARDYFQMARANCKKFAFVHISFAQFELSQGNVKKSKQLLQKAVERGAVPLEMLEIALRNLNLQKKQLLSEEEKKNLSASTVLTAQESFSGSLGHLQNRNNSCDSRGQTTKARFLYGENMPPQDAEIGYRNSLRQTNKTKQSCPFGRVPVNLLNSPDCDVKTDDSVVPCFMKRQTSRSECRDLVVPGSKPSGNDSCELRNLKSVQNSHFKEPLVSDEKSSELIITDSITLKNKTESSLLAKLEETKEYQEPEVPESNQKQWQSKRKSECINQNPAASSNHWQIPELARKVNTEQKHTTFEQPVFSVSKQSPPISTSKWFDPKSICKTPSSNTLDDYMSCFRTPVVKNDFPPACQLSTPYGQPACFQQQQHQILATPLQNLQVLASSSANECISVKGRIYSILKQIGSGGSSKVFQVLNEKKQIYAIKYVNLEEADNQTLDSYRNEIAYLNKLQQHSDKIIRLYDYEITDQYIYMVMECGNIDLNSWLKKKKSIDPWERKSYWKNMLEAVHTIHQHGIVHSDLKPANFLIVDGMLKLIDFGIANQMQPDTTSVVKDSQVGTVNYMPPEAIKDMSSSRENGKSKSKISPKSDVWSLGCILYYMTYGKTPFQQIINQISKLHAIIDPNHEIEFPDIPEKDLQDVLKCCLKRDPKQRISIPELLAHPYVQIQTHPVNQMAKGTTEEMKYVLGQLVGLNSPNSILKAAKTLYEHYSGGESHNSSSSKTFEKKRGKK
Test: Mps-1 kinase assay (TR-FRET)
Type: biochemical
Conditions: N-terminally GST-tagged human full length recombinant Mps-1; 10 μM ATP; 1 μM peptide substrate; 60 min at 22° C.
Method: The human kinase Mps-1 phosphorylates a biotinylated substrate peptide. Detection of the phosphorylated product is achieved by time-resolved fluorescence resonance energy transfer (TR-FRET) from Europium-labelled anti-phospho-Serine/Threonine antibody as donor to streptavidin labelled with cross-linked allophycocyanin (SA-XLent) as acceptor. Compounds are tested for their inhibition of the kinase activity.
N-terminally GST-tagged human full length recombinant Mps-1 kinase (purchased from Invitrogen, Karslruhe, Germany, cat. no PV4071) was used. As substrate for the kinase reaction a biotinylated peptide of the amino-acid sequence […] (C-terminus in amide form, purchased from Biosynthan GmbH, Berlin) was used.
The concentration of Mps-1 in the assay was adjusted to the activity of the enzyme lot and was chosen appropriate to have the assay in the linear range, typical enzyme concentrations were in the range of about 1 nM (final conc. in the 5 μl assay volume).
The resulting mixture was incubated 1 h at 22° C. to allow the binding of the phosphorylated peptide to the anti-phospho(Ser/Thr)-Europium-antibody. Subsequently the amount of phosphorylated substrate was evaluated by measurement of the resonance energy transfer from the Europium-labelled anti-phospho(Ser/Thr) antibody to the Streptavidin-XLent.

Row | IC50 | SMILES
1 | 0.9 nM | Cc1cc(-c2cnc3c(NCCC(F)(F)F)cc(-c4ccccc4CO)cn23)ccc1C(=O)NC1CC1 [Example 2-1, N-cyclopropyl-4-{6-[2-(hydroxymethyl)phenyl]-8-[(3,3,3-trifluoropropyl)amino]imidazo[1,2-a]pyridin-3-yl}-2-methylbenzamide]
2 | 0.3 nM | Cc1cc(-c2cnc3c(NCCC(F)(F)F)cc(-c4ccncc4)cn23)ccc1C(=O)NC1CC1 [Example 2-2, N-cyclopropyl-2-methyl-4-{6-(pyridin-4-yl)-8-[(3,3,3-trifluoropropyl)amino]imidazo [1,2-a]pyridin-3-yl} benzamide]
3 | 0.6 nM | Cc1cc(F)cc(Sc2cc(NCCC(F)(F)F)c3ncc(-c4ccc(C(=O)NC5CC5)c(C)c4)n3c2)c1 [Example 3-1, N-cyclopropyl-4-{6-[(3-fluoro-5-methylphenyl)sulfanyl]-8-[(3,3,3-trifluoropropyl)amino]imidazo[1,2-a]pyridin-3-yl}-2-methylbenzamide]
4 | 0.3 nM | Cc1cc(-c2cnc3c(NCCC(F)(F)F)cc(Sc4cccc(F)c4F)cn23)ccc1C(=O)NC1CC1 [Example 3-2, N-cyclopropyl-4-{6-[(2,3-difluorophenyl)sulfanyl]-8-[(3,3,3-trifluoropropyl)amino]imidazo[1,2-a]pyridin-3-yl}-2-methylbenzamide]
5 | 0.5 nM | Cc1cc(-c2cnc3c(NCCC(F)(F)F)cc(Sc4ccccc4)cn23)ccc1C(=O)NC1CC1 [Example 3-3, N-cyclopropyl-2-methyl-4-{6-(phenylsulfanyl)-8-[(3,3,3-trifluoropropyl)amino]imidazo[1,2-a]pyridin-3-yl} benzamide]
6 | 2 nM | Cc1cc(-c2cnc3c(NCCC(F)(F)F)cc(Sc4ccccc4N)cn23)ccc1C(=O)NC1CC1 [Example 3-4, 4-{6-[(2-aminophenyl)sulfanyl]-8-[(3,3,3-trifluoropropyl)amino]imidazo[1,2-a]pyridin-3-yl}-N-cyclopropyl-2-methylbenzamide]
7 | 0.8 nM | Cc1cc(-c2cnc3c(NCCC(F)(F)F)cc(Sc4cccc(F)c4)cn23)ccc1C(=O)NC1CC1 [Example 3-5]

The next lines start with the compound.

Row | SMILES | IC50
8 | CCc1cc(NCCC(F)(F)F)c2ncc(-c3ccc(C(=O)N[C@H]4C[C@@H]4F)c(C)c3)n2c1 (relative stereo) [Example 104, 4-{6-Ethyl-8-[(3,3,3-trifluoropropyl)amino]imidazo[1,2-a]pyridin-3-yl}-N-[rel-(1S,2S)-2-fluorocyclopropyl]-2-methylbenzamide] | 65.3 nM
9 | CCc1cc(NCCC(F)(F)F)c2ncc(-c3ccc(C(=O)N[C@H]4C[C@@H]4C)c(C)c3)n2c1 (relative stereo) [Example 105, 4-{6-Ethyl-8-[(3,3,3-trifluoropropyl)amino]imidazo[1,2-a]pyridin-3-yl}-2-methyl-N-[rel-(1S,2S)-2-methylcyclopropyl]benzamide] | 49.8 nM
10 | C/C=C/c1cc(NCCC(F)(F)F)c2ncc(-c3ccc(C(=O)N[C@H]4C[C@@H]4F)c(C)c3)n2c1 (relative stereo) [Example 116, N-[rel-(1S,2S)-2-fluorocyclopropyl]-2-methyl-4-{6-[(1E)-prop-1-en-1-yl]-8-[(3,3,3-trifluoropropyl)amino]imidazo[1,2-a]pyridin-3-yl}benzamide] | 19.9 nM
11 | C/C=C/c1cc(NCCC(F)(F)F)c2ncc(-c3ccc(C(=O)N[C@H]4C[C@@H]4C)c(C)c3)n2c1 (relative stereo) [Example 117, 2-Methyl-N-[rel-(1S,2S)-2-methylcyclopropyl]-4-{6-[(1E)-prop-1-en-1-yl]-8-[(3,3,3-trifluoropropyl)amino]imidazo[1,2-a]pyridin-3-yl}benzamide] | 9.4 nM
12 | Cc1cc(-c2cnc3c(NCCC(F)(F)F)cc(/C=C\CO)cn23)ccc1C(=O)N[C@@H]1C[C@H]1F (relative stereo) [Example 118, N-[rel-(1R,2R)-2-fluorocyclopropyl]-4-{6-[(1Z)-3-hydroxyprop-1-en-1-yl]-8-[(3,3,3-trifluoropropyl)amino]imidazo[1,2-a]pyridin-3-yl}-2-methylbenzamide] | 19.9 nM
13 | COc1ccc(Oc2cc(NCCC(F)(F)F)c3ncc(-c4ccc(C(=O)N[C@H]5C[C@@H]5F)c(C)c4)n3c2)cc1F (relative stereo) [Example 124, N-[rel-(1S,2S)-2-fluorocyclopropyl]-4-{6-(3-fluoro-4-methoxyphenoxy)-8-[(3,3,3-trifluoropropyl)amino]imidazo[1,2-a]pyridin-3-yl}-2-methylbenzamide] | 0.7 nM
14 | COc1ccc(Oc2cc(NCCC(F)(F)F)c3ncc(-c4ccc(C(=O)N[C@H]5C[C@@H]5C)c(C)c4)n3c2)cc1F (relative stereo) [Example 125, 4-{6-(3-fluoro-4-methoxyphenoxy)-8-[(3,3,3-trifluoropropyl)amino]imidazo[1,2-a]pyridin-3-yl}-2-methyl-N-[rel-(1S,2S)-2-methylcyclopropyl]benzamide] | 2 nM
15 | Cc1cc(-c2cnc3c(NCCC(F)(F)F)cc(-c4ccccc4O)cn23)ccc1C(=O)N[C@H]1C[C@@H]1F (relative stereo) [Example 135, N-[rel-(1S,2S)-2-fluorocyclopropyl]-4-{6-(2-hydroxyphenyl)-8-[(3,3,3-trifluoropropyl)amino]imidazo[1,2-a]pyridin-3-yl}-2-methylbenzamide] | 8.4 nM
16 | Cc1cc(-c2cnc3c(NCCC(F)(F)F)cc(-c4ccc(C(=O)N[C@H]5C[C@@H]5F)c(C)c4)cn23)ccc1C(=O)NC1CC1 (relative stereo) [Example 152, 4-{3-[4-(cyclopropylcarbamoyl)-3-methylphenyl]-8-[(3,3,3-trifluoropropyl)amino]imidazo[1,2-a]pyridin-6-yl}-N-[rel-(1S,2S)-2-fluorocyclopropyl]-2-methylbenzamide] | 0.8 nM
17 | CNC(=O)c1ccc(-c2cnc3c(NCCC(F)(F)F)cc(-c4ccc(C(=O)N[C@H]5C[C@@H]5F)c(C)c4)cn23)cc1C (relative stereo) [Example 154, 4-{6-(4-{[rel-(1S,2S)-2-fluorocyclopropyl]carbamoyl}-3-methylphenyl)-8-[(3,3,3-trifluoropropyl)amino]imidazo[1,2-a]pyridin-3-yl}-N,2-dimethylbenzamide] | 12.7 nM
18 | Cc1cc(-c2cnc3c(NCCC(F)(F)F)cc(Oc4cccc(F)c4)cn23)ccc1C(=O)NC1CC1F (single isomer, unassigned) [Example 12 (A or ent.-A), N-{[(1S,2S) or (1R,2R)]-2-fluorocyclopropyl}-4-{6-(3-fluorophenoxy)-8-[(3,3,3-trifluoropropyl)amino]imidazo[1,2-a]pyridin-3-yl}-2-methylbenzamide] | 0.8 nM
19 | Cc1cc(-c2cnc3c(NCCC(F)(F)F)cc(Oc4cccc(F)c4)cn23)ccc1C(=O)NC1CC1F (single isomer, unassigned) [Example 12 (ent.-A or A), N-{[(1R,2R) or (1S,2S)]-2-fluorocyclopropyl}-4-{6-(3-fluorophenoxy)-8-[(3,3,3-trifluoropropyl)amino]imidazo[1,2-a]pyridin-3-yl}-2-methylbenzamide] | 0.7 nM
20 | Cc1cc(-c2cnc3c(NCCC(F)(F)F)cc(Oc4cccc(Cl)c4)cn23)ccc1C(=O)NC1CC1F (single isomer, unassigned) [Example 39 (A or ent.-A), 4-{6-(3-chlorophenoxy)-8-[(3,3,3-trifluoropropyl)amino]imidazo[1,2-a]pyridin-3-yl}-N-{[(1S,2S) or (1R,2R)]-2-fluorocyclopropyl}-2-methylbenzamide] | 2.9 nM
21 | Cc1cc(-c2cnc3c(NCCC(F)(F)F)cc(Oc4cccc(Cl)c4)cn23)ccc1C(=O)NC1CC1F (single isomer, unassigned) [Example 39 (ent.-A or A), 4-{6-(3-chlorophenoxy)-8-[(3,3,3-trifluoropropyl)amino]imidazo[1,2-a]pyridin-3-yl}-N-{[1R,2R) or (1S,2S)]-2-fluorocyclopropyl}-2-methylbenzamide] | 4.9 nM
